Source: paper PMC139962 (Lipids in Health and Disease, 2002)
Read-outs that look alike come from different tables or passages of the source.

Tests used:
[1] = test system: AEA membrane transporter (AMT); type: biochemical, human; details: for inhibition of [3H]AEA uptake: 100 µM; for IC50: read-out: IC50 of inhibition of [3H]AEA uptake; for Ki: read-out: Ki (inhibition of AMT)
[2] = test system: AEA membrane transporter (AMT); experiment: [3H]AEA uptake by human healthy brain; type: biochemical; details: for IC50: read-out: IC50 of inhibition of [3H]AEA uptake, 15 min at 37°C
[3] = test system: AEA membrane transporter (AMT); experiment: [3H]AEA uptake by mouse brain; type: biochemical; details: mouse brain synaptosomes
[4] = test system: AEA membrane transporter (AMT); experiment: [3H]AEA uptake by rat brain; type: biochemical; details: rat brain synaptosomes

In the case of `CCCCC[C@H](O)/C=C/[C@H]1[C@H](O)CC(=O)[C@@H]1C/C=C\CCCC(=O)O` [prostaglandin E2], the “effect on accumulation of 200 nM [3H]AEA” value [1] is reported as “not affected”.
For `O=S(=O)(F)Cc1ccccc1` [PMSF, phenylmethylsulfonyl fluoride], the “inhibition of [3H]AEA uptake” value [1] was ~ 50%.
`NCCO` [ethanolamine] was tested, and the “effect on accumulation of 200 nM [3H]AEA” value [1] was “ineffective”.
`O=C(O)CI` [iodoacetic acid] was tested, and the “inhibition of [3H]AEA uptake” value [1] was ~ 50%.
For `CCCCC/C=C\C/C=C\C/C=C\C/C=C\CCCC(=O)NCCO` [AEA, N-arachidonoylethanolamine], the “Q10 (ratio of AEA uptake at 30°C and 20°C)” value ([2]; HB synaptosomes) was ~ 1.5, the “Vmax of AEA uptake” value ([2]; human healthy brain synaptosomes, 15 min, 0-1000 nM [3H]AEA, 37°C minus 4°C) was 374 ± 38 pmol/min per mg protein and the “Q10 (ratio of AEA uptake at 30°C and 20°C)” value [1] was ~ 1.5. For the same molecule, the “Vmax of AEA uptake” value [1] was 219 ± 19 pmol/min per mg protein, the “effect on accumulation of 200 nM [3H]AEA” value [1] was “fully inhibited” and the Km ([1]; read-out: apparent Km of AEA uptake) was 0.793 ± 0.128 µM. For the same molecule, the “Vmax of AEA uptake” value [3] was 370 ± 23 pmol/min per mg protein, the Km ([3]; read-out: Km of AEA uptake) was 0.66 ± 0.08 µM and the “Vmax of AEA uptake” value [4] was 357 ± 18 pmol/min per mg protein. The Km ([4]; read-out: Km of AEA uptake) was 0.483 ± 0.052 µM.
`CCCCC/C=C\C/C=C\C/C=C\C/C=C\CCCC(=O)Nc1ccc(O)cc1C` [VDM11] was tested, and the IC50 ([2]; HB synaptosomes) was about 7 µM and the IC50 [1] was about 7 µM.
`CCCCC/C=C\C/C=C\C/C=C\C/C=C\CCCC(=O)O` [arachidonic acid] was tested, and the “effect on accumulation of 200 nM [3H]AEA” value [1] was “ineffective”.
In the case of `N[C@H](CCC(=O)O)C(=O)O` [D-Glutamate], the Ki [1] is reported as 1.23 ± 0.11 µM.
With `CCCCC/C=C\C[C@@H](O)/C=C/C=C/C=C\[C@@H](O)CCCC(=O)O` [leukotriene B4] the “effect on accumulation of 200 nM [3H]AEA” value [1] was “not affected”.
`CCN1C(=O)C=CC1=O` [N-ethylmaleimide] was tested, and the “inhibition of [3H]AEA uptake” value [1] was ~ 50%.
For `CCCCC/C=C\C/C=C\C/C=C\C/C=C\CCCC(=O)OC(CO)CO` [2-AG, 2-arachidonoylglycerol], the “effect on accumulation of 200 nM [3H]AEA” value [1] was “inhibited almost completely”.
Work on `NC(=O)CC[C@H](N)C(=O)O` [L-Glutamine] yielded a Ki [1] of 1.1 ± 0.09 µM.
`NC(=O)CCC(N)C(=O)O` (stereo in doubt) [D-Glutamine] showed a Ki [1] of 0.525 ± 0.05 µM.
`CCCCC/C=C\C/C=C\C/C=C\C/C=C\CCCC(=O)Nc1ccc(O)cc1` [AM404, N-(4-hydroxyphenyl)-arachidonoylamide] gave an IC50 ([2]; HB synaptosomes) of about 7 µM and an IC50 [1] of about 7 µM.
`N[C@@H](CCC(=O)O)C(=O)O` [L-Glutamate] gave a Ki [1] of 4 ± 0.37 µM.
For `N=c1c[n+](N2CCOCC2)[n-]o1` [SIN-1, 3-morpholinosydnonimine], the “enhancement of [3H]AEA uptake” value [1] was 180–220%.
